Measurements as given in ChEMBL document CHEMBL1158676, “Aurilol, a Cytotoxic Bromotriterpene Isolated from the Sea Hare Dolabella auricularia” (J Nat Prod, 1998).
≈ marks a conversion by molar mass, not a printed value.

Assay: Cytotoxicity against human HeLaS3 cells
Assay type: functional, cell-based
Settings: HeLa S3

CC(C)(O)[C@H](O)CC[C@@](C)(O)[C@@H]1CC[C@](C)([C@@H]2CC[C@@H]([C@@]3(C)CC[C@@H]4OC(C)(C)[C@H](Br)CC[C@@]4(C)O3)O2)O1 [AURILOL]
IC50: 4.3 µg/mL (≈ 7.1 µM)
